{"source": "patent US20060154964A1", "about": "“Diarylmethylidene piperidine derivatives, preparations thereof and uses thereof” (AstraZeneca AB, priority 2003, published 2006)", "key": {"human δ receptors [1]": {"target": "T1, human δ receptors (Homo sapiens, UniProt P41143)", "T1 construct": "expressed in transfected cells", "T1 sequence (P41143 whole entry)": "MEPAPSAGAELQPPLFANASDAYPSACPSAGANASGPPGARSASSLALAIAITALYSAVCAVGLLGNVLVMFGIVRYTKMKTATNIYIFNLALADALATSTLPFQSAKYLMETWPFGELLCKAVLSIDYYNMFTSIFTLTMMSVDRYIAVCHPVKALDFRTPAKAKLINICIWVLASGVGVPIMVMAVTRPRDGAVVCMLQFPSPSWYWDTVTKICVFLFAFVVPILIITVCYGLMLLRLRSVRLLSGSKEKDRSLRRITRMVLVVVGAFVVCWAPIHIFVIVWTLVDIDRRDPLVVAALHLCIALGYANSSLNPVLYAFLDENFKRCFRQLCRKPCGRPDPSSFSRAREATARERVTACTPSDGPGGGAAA", "experiment": "GTP[γ]35S binding functional assay, HEK-293S membranes expressing cloned human δ receptors", "format": "biochemical", "conditions": "for Emax: relative to standard δ agonist SNC80", "description": "(§1) The agonist activity of the compounds is measured by determining the degree to which the compounds receptor complex activates the binding of GTP to G-proteins to which the receptors are coupled. In the GTP binding assay, GTP[γ]^35S is combined with test compounds and membranes from HEK-293S cells expressing the cloned human opioid receptors or from homogenised rat or mouse brain. Agonists stimulate GTP[γ]^35S binding in these membranes. The EC50 and Emax values of compounds are determined from dose-response curves. Right shifts of the dose response curve by the delta antagonist naltrindole are performed to verify that agonist activity is mediated through delta receptors. For human δ receptor functional assays, EC50 (low) is measured when the human δ receptors used in the assay were expressed at lower levels in comparison with those used in determining EC50 (high). The Emax values were determined in relation to the standard δ agonist SNC80, i.e., higher than 100% is a compound that have better efficacy than SNC80.\n(§2) Rat brain membranes are thawed at 37° C., passed 3 times through a 25-gauge blunt-end needle and diluted in the GTPγS binding (50 mM Hepes, 20 mM NaOH, 100 mM NaCl, 1 mM EDTA, 5 mM MgCl2, pH 7.4, Add fresh: 1 mM DTT, 0.1% BSA). 120 μM GDP final is added membranes dilutions. The EC50 and Emax of compounds are evaluated from 10-point dose-response curves done in 300 μl with the appropriate amount of membrane protein (20 μg/well) and 100000-130000 dpm of GTPγ^35S per well (0.11-0.14 nM). The basal and maximal stimulated binding are determined in absence and presence of 3 μM SNC-80. The assay performed on HEK 293s cells stably expressing cloned Delta receptors is done in a slightly different buffer (50 mM Hepes, 20 mM NaOH, 200 mM NaCl, 1 mM EDTA, 5 mM MgCl2, pH 7.4, Add fresh: 0.5% BSA, no DTT) and with a 3 μM final conc. of GDP."}, "human δ receptors [2]": {"target": "T1, human δ receptors", "experiment": "Binding assay, cloned human δ receptor membranes (125I-Deltorphin II displacement)"}, "human κ receptors": {"target": "T2, human κ receptors (Homo sapiens, UniProt P41145)", "T2 construct": "expressed in transfected cells; host or cells: human 293S cells, geneticin-selected", "T2 sequence (P41145 whole entry)": "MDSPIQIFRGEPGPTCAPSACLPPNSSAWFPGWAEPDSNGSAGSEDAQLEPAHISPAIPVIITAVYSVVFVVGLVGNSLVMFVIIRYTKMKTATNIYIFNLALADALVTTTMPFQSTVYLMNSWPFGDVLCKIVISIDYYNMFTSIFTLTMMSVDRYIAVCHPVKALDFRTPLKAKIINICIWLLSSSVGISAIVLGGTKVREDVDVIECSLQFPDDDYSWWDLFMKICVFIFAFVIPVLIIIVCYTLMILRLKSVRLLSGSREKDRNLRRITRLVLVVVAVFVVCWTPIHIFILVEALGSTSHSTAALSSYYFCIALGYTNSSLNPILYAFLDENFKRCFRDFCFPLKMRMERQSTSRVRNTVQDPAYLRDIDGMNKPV", "experiment": "Binding assay, cloned human κ receptor membranes (125I-DPDYN displacement)"}, "[3]": {"target": "T3, δ receptors in rat brain membranes (Rattus norvegicus, UniProt P33533)", "T3 construct": "membranes from HEK-293S cells expressing the cloned human opioid receptors or from homogenised rat or mouse brain; from tissue; host or cells: rat brain homogenate membranes", "T3 sequence (P33533 whole entry)": "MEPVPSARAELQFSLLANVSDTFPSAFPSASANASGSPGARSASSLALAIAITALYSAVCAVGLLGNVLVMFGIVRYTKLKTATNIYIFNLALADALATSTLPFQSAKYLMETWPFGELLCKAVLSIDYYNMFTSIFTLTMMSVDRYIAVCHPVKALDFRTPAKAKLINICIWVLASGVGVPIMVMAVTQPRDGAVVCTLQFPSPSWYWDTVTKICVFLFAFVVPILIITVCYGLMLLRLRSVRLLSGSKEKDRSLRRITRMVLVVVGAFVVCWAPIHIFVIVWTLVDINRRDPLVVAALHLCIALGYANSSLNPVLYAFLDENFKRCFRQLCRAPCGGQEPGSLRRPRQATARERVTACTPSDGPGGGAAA", "experiment": "Rat brain GTP[γ]35S binding functional assay", "format": "biochemical", "conditions": "for Emax: Table 1, rat brain membranes, relative to SNC80", "description": "Rat brains are weighed and rinsed in ice-cold PBS (containing 2.5 mM EDTA, pH 7.4). The brains are homogenized with a polytron for 30 sec (rat) in ice-cold lysis buffer (50 mM Tris, pH 7.0, 2.5 mM EDTA, with phenylmethylsulfonyl fluoride added just prior use to […] from a 0.5M stock in DMSO:ethanol).\nas §1, §2"}, "human μ receptors": {"target": "T4, human μ receptors (Homo sapiens, UniProt P35372)", "T4 construct": "expressed in transfected cells; host or cells: human 293S cells, geneticin-selected", "T4 sequence (P35372 whole entry)": "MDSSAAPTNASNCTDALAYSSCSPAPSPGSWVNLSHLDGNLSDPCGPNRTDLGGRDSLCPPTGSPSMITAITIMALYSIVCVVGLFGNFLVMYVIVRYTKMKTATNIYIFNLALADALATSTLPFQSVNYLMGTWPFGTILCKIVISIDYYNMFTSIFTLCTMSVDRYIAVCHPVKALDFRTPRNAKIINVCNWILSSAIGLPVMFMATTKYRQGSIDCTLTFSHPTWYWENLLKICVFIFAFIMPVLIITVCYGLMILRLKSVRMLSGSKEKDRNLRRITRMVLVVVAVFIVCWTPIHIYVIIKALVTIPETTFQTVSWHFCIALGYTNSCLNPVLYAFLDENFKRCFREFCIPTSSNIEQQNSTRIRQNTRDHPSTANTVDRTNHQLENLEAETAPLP", "experiment": "Binding assay, cloned human μ receptor membranes (125I-FK33824 displacement)"}, "[4]": {"conditions": "Table 2, lower receptor expression, read-out: Human δ % EMax (low)"}, "[5]": {"conditions": "Table 2, read-out: Human κ IC50"}, "[6]": {"conditions": "Table 1, higher receptor expression, read-out: Human δ % EMax (high)"}}, "note": "Like-named read-outs stand apart in the source and are kept apart here."}
{"compound": "CCN(CC)C(=O)c1ccc(C(=C2CCN(Cc3cccs3)CC2)c2cccc(NC(C)=O)c2)cc1", "note": "[Compound 1, 4-{[3-(acetylamino)phenyl][1-(thien-2-ylmethyl)piperidin-4-ylidene]methyl}-N,N-diethylbenzamide]", "values": [{"measurement": "Emax", "setting": "human δ receptors [1]; [4]", "value": "80 to 112", "unit": "%"}, {"measurement": "IC50", "setting": "human δ receptors [2]", "value": "0.19 to 1.49", "unit": "nM"}, {"measurement": "IC50", "setting": "human κ receptors; [5]", "value": "5.83 to 9.07", "unit": "µM"}]}
{"compound": "CCN(CC)C(=O)c1ccc(C(=C2CCN(Cc3ccco3)CC2)c2cccc(NC(C)=O)c2)cc1", "note": "[Compound 2, 4-{[3-(acetylamino)phenyl][1-(2-furylmethyl)piperidin-4-ylidene]methyl}-N,N-diethylbenzamide]", "values": [{"measurement": "Emax", "setting": "human δ receptors [1]; [4]", "value": "80 to 112", "unit": "%"}, {"measurement": "IC50", "setting": "human δ receptors [2]", "value": "0.19 to 1.49", "unit": "nM"}, {"measurement": "IC50", "setting": "human κ receptors; [5]", "value": "5.83 to 9.07", "unit": "µM"}]}
{"compound": "CCN(CC)C(=O)c1ccc(C(=C2CCN(Cc3ccccc3)CC2)c2cccc(NC(C)=O)c2)cc1", "note": "[Compound 3, 4-[[3-(acetylamino)phenyl][1-(phenylmethyl)-4-piperidinylidene]methyl]-N,N-diethyl-benzamide]", "values": [{"measurement": "EC50", "setting": "human δ receptors [1]", "value": "1.46 to 2.65", "unit": "nM"}, {"measurement": "Emax", "setting": "human δ receptors [1]; [6]", "value": "95 to 98", "unit": "%"}, {"measurement": "IC50", "setting": "human δ receptors [2]", "value": "0.34 to 0.59", "unit": "nM"}, {"measurement": "EC50", "setting": "[3]", "value": "7.2 to 15.8", "unit": "nM"}, {"measurement": "Emax", "setting": "[3]", "value": "126 to 137", "unit": "%"}, {"measurement": "IC50", "setting": "human μ receptors", "value": "344 to 368", "unit": "nM"}, {"measurement": "IC50", "setting": "human κ receptors", "value": "2.47 to 8", "unit": "µM"}]}
{"compound": "CCN(CC)C(=O)c1ccc(C(=C2CCN(Cc3ccsc3)CC2)c2cccc(NC(C)=O)c2)cc1", "note": "[Compound 4, 4-[[3-(acetylamino)phenyl][1-(3-thienylmethyl)-4-piperidinylidene]methyl]-N,N-diethyl-benzamide]", "values": [{"measurement": "EC50", "setting": "human δ receptors [1]", "value": "1.46 to 2.65", "unit": "nM"}, {"measurement": "Emax", "setting": "human δ receptors [1]; [6]", "value": "95 to 98", "unit": "%"}, {"measurement": "IC50", "setting": "human δ receptors [2]", "value": "0.34 to 0.59", "unit": "nM"}, {"measurement": "EC50", "setting": "[3]", "value": "7.2 to 15.8", "unit": "nM"}, {"measurement": "Emax", "setting": "[3]", "value": "126 to 137", "unit": "%"}, {"measurement": "IC50", "setting": "human μ receptors", "value": "344 to 368", "unit": "nM"}, {"measurement": "IC50", "setting": "human κ receptors", "value": "2.47 to 8", "unit": "µM"}]}
{"compound": "CCN(CC)C(=O)c1ccc(C(=C2CCN(Cc3cccnc3)CC2)c2cccc(NC(C)=O)c2)cc1", "note": "[Compound 5, 4-[[3-(acetylamino)phenyl][1-(3-pyridinylmethyl)-4-piperidinylidene]methyl]-N,N-diethyl-benzamide]", "values": [{"measurement": "Emax", "setting": "human δ receptors [1]; [4]", "value": "80 to 112", "unit": "%"}, {"measurement": "IC50", "setting": "human δ receptors [2]", "value": "0.19 to 1.49", "unit": "nM"}, {"measurement": "IC50", "setting": "human κ receptors", "value": "5.83 to 9.07", "unit": "µM"}]}
{"compound": "CCN(CC)C(=O)c1ccc(C(=C2CCN(Cc3ccncc3)CC2)c2cccc(NC(C)=O)c2)cc1", "note": "[Compound 6, 4-[[-3-(acetylamino)phenyl][1-(4-pyridinylmethyl)-4-piperidinylidene]methyl]-N,N-diethyl-benzamide]", "values": [{"measurement": "Emax", "setting": "human δ receptors [1]; [4]", "value": "80 to 112", "unit": "%"}, {"measurement": "IC50", "setting": "human δ receptors [2]", "value": "0.19 to 1.49", "unit": "nM"}, {"measurement": "IC50", "setting": "human κ receptors", "value": "5.83 to 9.07", "unit": "µM"}]}
{"compound": "CCN(CC)C(=O)c1ccc(C(=C2CCN(Cc3ccccn3)CC2)c2cccc(NC(C)=O)c2)cc1", "note": "[Compound 7, 4-{[3-(acetylamino)phenyl][1-(pyridin-2-ylmethyl)piperidin-4-ylidene]methyl}-N,N-diethylbenzamide]", "values": [{"measurement": "Emax", "setting": "human δ receptors [1]; [4]", "value": "80 to 112", "unit": "%"}, {"measurement": "IC50", "setting": "human δ receptors [2]", "value": "0.19 to 1.49", "unit": "nM"}, {"measurement": "IC50", "setting": "human κ receptors; [5]", "value": "5.83 to 9.07", "unit": "µM"}]}
{"compound": "CCN(CC)C(=O)c1ccc(C(=C2CCN(Cc3cscn3)CC2)c2cccc(NC(C)=O)c2)cc1", "note": "[Compound 8, 4-{[3-(acetylamino)phenyl][1-(1,3-thiazol-4-ylmethel)piperidin-4-ylidene]methyl}-N,N-diethylbenzamide]", "values": [{"measurement": "Emax", "setting": "human δ receptors [1]; [4]", "value": "80 to 112", "unit": "%"}, {"measurement": "IC50", "setting": "human δ receptors [2]", "value": "0.19 to 1.49", "unit": "nM"}, {"measurement": "IC50", "setting": "human κ receptors; [5]", "value": "5.83 to 9.07", "unit": "µM"}]}
{"compound": "CCN(CC)C(=O)c1ccc(C(=C2CCN(Cc3cncs3)CC2)c2cccc(NC(C)=O)c2)cc1", "note": "[Compound 9, 4-{[3-(acetylamino)phenyl][1-(1,3-thiazol-5-ylmethyl)piperidin-4-ylidene]methyl}-N,N-diethylbenzamide]", "values": [{"measurement": "Emax", "setting": "human δ receptors [1]; [4]", "value": "80 to 112", "unit": "%"}, {"measurement": "IC50", "setting": "human δ receptors [2]", "value": "0.19 to 1.49", "unit": "nM"}, {"measurement": "IC50", "setting": "human κ receptors; [5]", "value": "5.83 to 9.07", "unit": "µM"}]}
